Laboratory results taken from patent US11427549B2, “Pyrimidinyloxy benzo-fused compounds as herbicides” (FMC Corporation, priority 2017, dated 2022).

Assays:
[1] = system: rice (Oryza sativa); assay: Test B flooded paddy test, rice; conditions: Oryza sativa, read-out: Plant response rating, Rice (0 to 100 scale, 0 is no effect, 100 is complete control)
[2] = system: barnyardgrass (Echinochloa crus-galli); assay: Test A preemergence, barnyardgrass; format: in vivo; conditions: Echinochloa crus-galli, pre-emergence, 240 h, 0 to 100 scale (0 no effect, 100 complete control), read-out: Plant response rating, Barnyardgrass; for pest or weed control at 31 g/ha: 31 g ai/ha; for pest or weed control at 125 g/ha: 125 g ai/ha
[3] = system: pigweed (Amaranthus retroflexus); assay: Test A postemergence, pigweed; format: in vivo; conditions: Amaranthus retroflexus, post-emergence, 240 h, 0 to 100 scale (0 no effect, 100 complete control), read-out: Plant response rating, Pigweed; for pest or weed control at 31 g/ha: 31 g ai/ha; for pest or weed control at 125 g/ha: 125 g ai/ha
[4] = system: galium (catchweed bedstraw, Galium aparine); assay: Test A postemergence, galium; format: in vivo; conditions: Galium, post-emergence, 240 h, 0 to 100 scale (0 no effect, 100 complete control), read-out: Plant response rating, Galium; for pest or weed control at 31 g/ha: 31 g ai/ha; for pest or weed control at 125 g/ha: 125 g ai/ha
[5] = system: ducksalad (Heteranthera limosa); assay: Test B flooded paddy test, ducksalad; conditions: Heteranthera limosa, read-out: Plant response rating, Ducksalad (0 to 100 scale, 0 is no effect, 100 is complete control)
[6] = system: blackgrass (Alopecurus myosuroides); assay: Test A postemergence, blackgrass; format: in vivo; conditions: Alopecurus myosuroides, post-emergence, 240 h, 0 to 100 scale (0 no effect, 100 complete control), read-out: Plant response rating, Blackgrass; for pest or weed control at 31 g/ha: 31 g ai/ha; for pest or weed control at 125 g/ha: 125 g ai/ha
[7] = system: barnyardgrass (Echinochloa crus-galli); assay: Test B flooded paddy test, barnyardgrass; conditions: Echinochloa crus-galli, read-out: Plant response rating, Barnyardgrass (0 to 100 scale, 0 is no effect, 100 is complete control)
[8] = system: kochia (Kochia scoparia); assay: Test A preemergence, kochia; format: in vivo; conditions: Bassia scoparia, pre-emergence, 240 h, 0 to 100 scale (0 no effect, 100 complete control), read-out: Plant response rating, Kochia; for pest or weed control at 31 g/ha: 31 g ai/ha; for pest or weed control at 125 g/ha: 125 g ai/ha
[9] = system: pigweed (Amaranthus retroflexus); assay: Test A preemergence, pigweed; format: in vivo; conditions: Amaranthus retroflexus, pre-emergence, 240 h, 0 to 100 scale (0 no effect, 100 complete control), read-out: Plant response rating, Pigweed; for pest or weed control at 31 g/ha: 31 g ai/ha; for pest or weed control at 125 g/ha: 125 g ai/ha
[10] = system: barnyardgrass (Echinochloa crus-galli); assay: Test A postemergence, barnyardgrass; format: in vivo; conditions: Echinochloa crus-galli, post-emergence, 240 h, 0 to 100 scale (0 no effect, 100 complete control), read-out: Plant response rating, Barnyardgrass; for pest or weed control at 31 g/ha: 31 g ai/ha; for pest or weed control at 125 g/ha: 125 g ai/ha
[11] = system: corn (Zea mays); assay: Test A postemergence, corn; format: in vivo; conditions: Zea mays, post-emergence, 240 h, 0 to 100 scale (0 no effect, 100 complete control); for Corn plant response rating (crop injury, 0 = no effect, 100 = complete kill) at 31 g/ha: 31 g ai/ha; for Corn plant response rating (crop injury, 0 = no effect, 100 = complete kill) at 125 g/ha: 125 g ai/ha
[12] = system: kochia (Kochia scoparia); assay: Test A postemergence, kochia; format: in vivo; conditions: Bassia scoparia, post-emergence, 240 h, 0 to 100 scale (0 no effect, 100 complete control), read-out: Plant response rating, Kochia; for pest or weed control at 31 g/ha: 31 g ai/ha; for pest or weed control at 125 g/ha: 125 g ai/ha
[13] = system: ryegrass, Italian (Italian ryegrass, Lolium multiflorum); assay: Test A postemergence, ryegrass, Italian; format: in vivo; conditions: Lolium multiflorum, post-emergence, 240 h, 0 to 100 scale (0 no effect, 100 complete control), read-out: Plant response rating, Ryegrass, Italian; for pest or weed control at 31 g/ha: 31 g ai/ha; for pest or weed control at 125 g/ha: 125 g ai/ha
[14] = system: wheat (Triticum aestivum); assay: Test A postemergence, wheat; format: in vivo; conditions: Triticum aestivum, post-emergence, 240 h, 0 to 100 scale (0 no effect, 100 complete control), read-out: Plant response rating, Wheat; for plant injury at 31 g/ha: 31 g ai/ha; for plant injury at 125 g/ha: 125 g ai/ha
[15] = system: ryegrass, Italian (Italian ryegrass, Lolium multiflorum); assay: Test A preemergence, ryegrass, Italian; format: in vivo; conditions: Lolium multiflorum, pre-emergence, 240 h, 0 to 100 scale (0 no effect, 100 complete control), read-out: Plant response rating, Ryegrass, Italian; for pest or weed control at 31 g/ha: 31 g ai/ha; for pest or weed control at 125 g/ha: 125 g ai/ha
[16] = system: ragweed (common ragweed, Ambrosia elatior); assay: Test A preemergence, ragweed; format: in vivo; conditions: Ambrosia artemisiifolia, pre-emergence, 240 h, 0 to 100 scale (0 no effect, 100 complete control), read-out: Plant response rating, Ragweed; for pest or weed control at 31 g/ha: 31 g ai/ha; for pest or weed control at 125 g/ha: 125 g ai/ha
[17] = system: ragweed (common ragweed, Ambrosia elatior); assay: Test A postemergence, ragweed; format: in vivo; conditions: Ambrosia artemisiifolia, post-emergence, 240 h, 0 to 100 scale (0 no effect, 100 complete control), read-out: Plant response rating, Ragweed; for pest or weed control at 31 g/ha: 31 g ai/ha; for pest or weed control at 125 g/ha: 125 g ai/ha

Structure (SMILES)	plant injury at 250 g/ha [1] [%]	pest or weed control at 31 g/ha [2] [%]	pest or weed control at 125 g/ha [2] [%]	pest or weed control at 31 g/ha [3] [%]	pest or weed control at 125 g/ha [3] [%]	pest or weed control at 31 g/ha [4] [%]	pest or weed control at 125 g/ha [4] [%]	pest or weed control at 250 g/ha [5] [%]	pest or weed control at 31 g/ha [6] [%]	pest or weed control at 125 g/ha [6] [%]	pest or weed control at 250 g/ha [7] [%]	pest or weed control at 31 g/ha [8] [%]	pest or weed control at 125 g/ha [8] [%]	pest or weed control at 31 g/ha [9] [%]	pest or weed control at 125 g/ha [9] [%]	pest or weed control at 31 g/ha [10] [%]	pest or weed control at 125 g/ha [10] [%]	Corn plant response rating (crop injury, 0 = no effect, 100 = complete kill) at 31 g/ha [11] [%]	Corn plant response rating (crop injury, 0 = no effect, 100 = complete kill) at 125 g/ha [11] [%]	pest or weed control at 31 g/ha [12] [%]	further results
O=C1Cc2cccc(Oc3ncc(Cl)cn3)c2C(CCC(F)(F)F)O1 (stereo not shown) [Compound 28, 8-[(5-Chloro-2-pyrimidinyl)oxy]-1,4-dihydro-1-(3,3,3-trifluoropropyl)-3H-2-benzopyran-3-one]	0	0	60	30	70	20	60	0	10	60	0	0	50	10	100	0	10	10	20	20	pest or weed control at 125 g/ha [12]: 70%; pest or weed control at 31 g/ha [13]: 0%; pest or weed control at 125 g/ha [13]: 0%; plant injury at 31 g/ha [14]: 0%; plant injury at 125 g/ha [14]: 0%; pest or weed control at 31 g/ha [15]: 0%; pest or weed control at 125 g/ha [15]: 10%; pest or weed control at 31 g/ha [16]: 0%; pest or weed control at 125 g/ha [16]: 0%; pest or weed control at 31 g/ha [17]: 10%; pest or weed control at 125 g/ha [17]: 20%
O=C1OCc2cccc(Oc3ncc(Cl)cn3)c2C1CCC(F)(F)F (stereo not shown) [Compound 29, 5-[(5-Chloro-2-pyrimidinyl)oxy]-1,4-dihydro-4-(3,3,3-trifluoropropyl)-3H-2-benzopyran-3-one]	0	0	10	30	70	20	50	0	30	30	0	0	10	0	80	0	30	10	30	20	pest or weed control at 125 g/ha [12]: 60%; pest or weed control at 31 g/ha [13]: 0%; pest or weed control at 125 g/ha [13]: 30%; plant injury at 31 g/ha [14]: 0%; plant injury at 125 g/ha [14]: 10%; pest or weed control at 31 g/ha [15]: 0%; pest or weed control at 125 g/ha [15]: 0%; pest or weed control at 31 g/ha [16]: 0%; pest or weed control at 125 g/ha [16]: 10%; pest or weed control at 31 g/ha [17]: 10%; pest or weed control at 125 g/ha [17]: 30%
O=C1CCC(CCCC(F)(F)F)c2c(Oc3ncc(Cl)cn3)cccc21 (stereo not shown) [Compound 30, 5-[(5-Chloro-2-pyrimidinyl)oxy]-3,4-dihydro-4-(4,4,4-trifluorobutyl)-1(2H)-naphthalenone]	0	0	40	70	90	30	80	85	20	60	20	0	0	10	60	20	30	30	30	10	pest or weed control at 125 g/ha [12]: 30%; pest or weed control at 31 g/ha [13]: 30%; pest or weed control at 125 g/ha [13]: 30%; plant injury at 31 g/ha [14]: 0%; plant injury at 125 g/ha [14]: 20%; pest or weed control at 31 g/ha [15]: 0%; pest or weed control at 125 g/ha [15]: 10%; pest or weed control at 31 g/ha [16]: 0%; pest or weed control at 125 g/ha [16]: 0%; pest or weed control at 31 g/ha [17]: 10%; pest or weed control at 125 g/ha [17]: 10%
O=C1OC(CCCCC(F)(F)F)Cc2c(Oc3ncc(Cl)cn3)cccc21 (stereo not shown) [Compound 31, 5-[(5-Chloro-2-pyrimidinyl)oxy]-3,4-dihydro-3-(5,5,5-trifluoropentyl)-1H-2-benzopyran-1-one]	0	0	0	40	50	0	30	0	0	0	0	0	0	0	0	20	0	0	10	10	pest or weed control at 125 g/ha [12]: 40%; pest or weed control at 31 g/ha [13]: 0%; pest or weed control at 125 g/ha [13]: 0%; plant injury at 31 g/ha [14]: 0%; plant injury at 125 g/ha [14]: 0%; pest or weed control at 31 g/ha [15]: 0%; pest or weed control at 125 g/ha [15]: 0%; pest or weed control at 31 g/ha [16]: 0%; pest or weed control at 125 g/ha [16]: 0%; pest or weed control at 31 g/ha [17]: 0%; pest or weed control at 125 g/ha [17]: 0%
